Measurements reported in patent publication US12371454B2, “Cyclic peptide compound having Kras inhibitory action” (priority 2019, dated 2025).
Starred links: 1 amine or outer side, 2 acyl side, 3 side chain; linkers in the order of their positions; H or OH if unused. Positions of bridges follow the written chain, without caps; N, C: chain ends. Non-standard residues stand in square brackets, D forms with d. Residues, ends and D or L forms follow the SMILES beside them. *: point of attachment. hPhe(3,5-F2-4-CF3) = N[C@@H](CCc1cc(F)c(C(F)(F)F)c(F)c1)C(=O)O; hPhe(3-Cl-4-CF3) = N[C@@H](CCc1ccc(C(F)(F)F)c(Cl)c1)C(=O)O; hPhe(3-F,4-CF3) = N[C@@H](CCc1ccc(C(F)(F)F)c(F)c1)C(=O)O; NMePhe(4-CF3) = CN[C@@H](Cc1ccc(C(F)(F)F)cc1)C(=O)O; hPhe(4-CF3) = N[C@@H](CCc1ccc(C(F)(F)F)cc1)C(=O)O; NMePhe(4-Cl) = CN[C@@H](Cc1ccc(Cl)cc1)C(=O)O; hPhe(4-Cl) = N[C@@H](CCc1ccc(Cl)cc1)C(=O)O; NMedβ3hAla = C[C@H](CC(=O)[*:2])N(C)[*:1]; Phe(3-I) = N[C@@H](Cc1cccc(I)c1)C(=O)O; NMe3Pal = CN[C@@H](Cc1cccnc1)C(=O)O; NMeCha = CN[C@@H](CC1CCCCC1)C(=O)O; NMeChg = CN[C@H](C(=O)O)C1CCCCC1; NMeF = CN[C@@H](Cc1ccccc1)C(=O)O; NMeI = CC[C@H](C)[C@H](NC)C(=O)O; dNMeF = CN[C@H](Cc1ccccc1)C(=O)O; NMeD = CN[C@@H](CC(=O)O)C(=O)O; NMeL = CN[C@@H](CC(C)C)C(=O)O; dNMeAbu = CC[C@@H](NC)C(=O)O; NMeV = CN[C@H](C(=O)O)C(C)C; d(β3hA) = C[C@@H](N)CC(=O)O; NMeA = CN[C@@H](C)C(=O)O; NMeAib = CNC(C)(C)C(=O)O; Nle = CCCC[C@H](N)C(=O)O; Piperidide = C1CCN(*)CC1; Pyrrolidide = C1CCN(*)C1; Ac5c = NC1(C(=O)O)CCCC1; Aze = O=C(O)[C@@H]1CCN1; Thp = NC1(C(=O)O)CCOCC1; Sar = CNCC(=O)O

molecular target: T1, Kras and SOS1 (biotin-tagged human Kras loaded with GDP, His-tagged human SOS1) (Homo sapiens, UniProt P01116, G12D); test: Protein-protein interaction inhibition between Kras and SOS1 (KrasGl2D-SOS PPI) using AlphaScreen; assay type: binding; conditions: AlphaScreen; biotin-tagged human Kras loaded with GDP, His-tagged human SOS1; read-out: KRAS G12D-SOS PPI IC50
T1 construct: made in house; host or cells: E. coli (stated for Kras only)
Summary of the method: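 Read-out is acceptor-bead light at 520-620 nm, arising when 680 nm-irradiated nickel donor beads pass singlet oxygen to streptavidin acceptors. The bead pair links His-tagged SOS1 with biotin-tagged, GDP-bound Kras from E. coli.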

T1 sequence (P01116 1-188 isoform P01116-2 G12D): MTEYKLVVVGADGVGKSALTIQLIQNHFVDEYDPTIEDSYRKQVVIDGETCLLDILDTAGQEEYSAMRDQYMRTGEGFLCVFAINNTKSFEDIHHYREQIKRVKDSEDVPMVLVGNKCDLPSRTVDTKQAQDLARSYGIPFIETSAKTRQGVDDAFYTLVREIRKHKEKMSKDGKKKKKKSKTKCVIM

Row | SMILES | IC50
1 | CC[C@H](C)[C@@H]1NC(=O)[C@H](CC(C)C)N(C)C(=O)C[C@@H](C(=O)N2CCCCC2)N(C)C(=O)[C@H](C2CCCCC2)N(C)C(=O)C2(CCCC2)NC(=O)[C@H](Cc2cccnc2)N(C)C(=O)[C@H](CCc2ccc(C(F)(F)F)c(Cl)c2)NC(=O)CN(C)C(=O)[C@H](CC2CCCCC2)N(C)C(=O)CN(C)C(=O)CN(C)C1=O [Compound 63] ([NMeL]I[Sar][Sar][NMeCha][Sar][hPhe(3-Cl-4-CF3)][NMe3Pal][Ac5c][NMeChg][NMeD]-Piperidide; lactam N-11) | 3.7 nM
2 | CC[C@H](C)[C@@H]1NC(=O)[C@H](C)N(C)C(=O)C[C@@H](C(=O)N2CCCCC2)N(C)C(=O)[C@H]([C@@H](C)CC)N(C)C(=O)C2(CCCC2)NC(=O)[C@@H](Cc2ccccc2)N(C)C(=O)[C@H](CCc2cc(F)c(C(F)(F)F)c(F)c2)NC(=O)CN(C)C(=O)[C@H](Cc2ccc(C(F)(F)F)cc2)N(C)C(=O)[C@@H]2CCN2C(=O)[C@H](C)N(C)C1=O [Compound 1992] ([NMeA]I[NMeA][Aze][NMePhe(4-CF3)][Sar][hPhe(3,5-F2-4-CF3)][dNMeF][Ac5c][NMeI][NMeD]-Piperidide; lactam N-11) | 280 nM
3 | CC[C@H](C)[C@@H]1NC(=O)[C@H](CC(C)C)NC(=O)C[C@@H](C(=O)N2CCCCC2)N(C)C(=O)[C@H](C(C)C)N(C)C(=O)C2(CCCC2)NC(=O)[C@@H]2CCCN2C(=O)[C@H](CCc2ccc(C(F)(F)F)c(Cl)c2)NC(=O)CN(C)C(=O)[C@H](CC2CCCCC2)N(C)C(=O)[C@@H]2CCN2C(=O)[C@H](C)N(C)C1=O [Compound 368] (LI[NMeA][Aze][NMeCha][Sar][hPhe(3-Cl-4-CF3)]P[Ac5c][NMeV][NMeD]-Piperidide; lactam N-11) | 2.7 nM
4 | CCCC[C@@H]1NC(=O)[C@H](Cc2cccc(I)c2)NC(=O)CN(C)C(=O)[C@H](Cc2ccc(Cl)cc2)N(C)C(=O)CN(C)C(=O)CN(C)C(=O)[C@H]([C@@H](C)CC)NC(=O)[C@H](CC(C)C)N(C)C(=O)C[C@@H](C(=O)N2CCCC2)N(C)C(=O)[C@H](Cc2ccccc2)NC(=O)C(C)(C)N(C)C1=O [Compound 1409] ([NMeL]I[Sar][Sar][NMePhe(4-Cl)][Sar][Phe(3-I)][Nle][NMeAib]F[NMeD]-Pyrrolidide; lactam N-11) | 170 nM
5 | CC[C@H](C)[C@@H]1NC(=O)[C@H](CC(C)C)N(C)C(=O)C[C@@H](C(=O)N2CCCCC2)N(C)C(=O)[C@H](CC(C)C)N(C)C(=O)C2(CCCC2)NC(=O)[C@@H]2CCCN2C(=O)[C@H](CCc2ccc(C(F)(F)F)c(F)c2)NC(=O)CN(C)C(=O)[C@H](Cc2ccc(Cl)cc2)N(C)C(=O)CN(C)C(=O)CN(C)C1=O [Compound 1061] ([NMeL]I[Sar][Sar][NMePhe(4-Cl)][Sar][hPhe(3-F,4-CF3)]P[Ac5c][NMeL][NMeD]-Piperidide; lactam N-11) | 14 nM
6 | CC[C@H](C)[C@@H]1NC(=O)[C@H](C)N(C)C(=O)C[C@@H](C(=O)N2CCCC2)NC(=O)[C@H](CC(C)C)N(C)C(=O)[C@H](Cc2ccccc2)N(C)C(=O)[C@H](CC(C)C)N(C)C(=O)[C@H](CCc2ccc(C(F)(F)F)cc2)NC(=O)CN(C)C(=O)[C@H](Cc2ccc(Cl)cc2)N(C)C(=O)CN(C)C(=O)CN(C)C1=O [Compound 199] ([NMeA]I[Sar][Sar][NMePhe(4-Cl)][Sar][hPhe(4-CF3)][NMeL][NMeF][NMeL]D-Pyrrolidide; lactam N-11) | 36 nM
7 | CC[C@@H]1C(=O)NC2(CCCC2)C(=O)N(C)[C@@H](C(C)C)C(=O)N(C)[C@H](C(=O)N2CCCCC2)CC(=O)N(C)[C@@H](CC(C)C)C(=O)N[C@@H]([C@@H](C)CC)C(=O)N(C)[C@@H](C)C(=O)N2CC[C@H]2C(=O)N(C)[C@@H](CC2CCCCC2)C(=O)N(C)CC(=O)N[C@@H](CCc2ccc(C(F)(F)F)c(Cl)c2)C(=O)N1C [Compound 1438] ([NMeL]I[NMeA][Aze][NMeCha][Sar][hPhe(3-Cl-4-CF3)][dNMeAbu][Ac5c][NMeV][NMeD]-Piperidide; lactam N-11) | 36 nM
8 | CC[C@H](C)[C@@H]1NC(=O)[C@H](C)N(C)C(=O)C[C@@H](C)NC(=O)[C@H](C(C)C)N(C)C(=O)C2(CCCC2)NC(=O)[C@@H]2CCCN2C(=O)[C@H](CCc2ccc(C(F)(F)F)c(Cl)c2)NC(=O)CN(C)C(=O)[C@H](Cc2ccccc2)N(C)C(=O)[C@@H]2CCCN2C(=O)CN(C)C1=O [Compound 1778] (cyclo([Ac5c][NMeV][d(β3hA)][NMeA]I[Sar]P[NMeF][Sar][hPhe(3-Cl-4-CF3)]P)) | 7.3 nM
9 | CC[C@H](C)[C@@H]1NC(=O)[C@H](CC(C)C)N(C)C(=O)C[C@@H](C)N(C)C(=O)[C@H](CC(C)C)N(C)C(=O)C2(CCOCC2)NC(=O)[C@@H]2CCCN2C(=O)[C@H](CCc2ccc(Cl)cc2)NC(=O)CN(C)C(=O)[C@H](CC2CCCCC2)N(C)C(=O)CN(C)C(=O)CN(C)C1=O [Compound 802] (cyclo(I[Sar][Sar][NMeCha][Sar][hPhe(4-Cl)]P[Thp][NMeL][NMedβ3hAla][NMeL])) | 390 nM
